# From article PMC7440915, “Discovery of surrogate agonists for visceral fat Treg cells that modulate metabolic indices in vivo” (eLife, 2020)
# System: vTreg53 TCR
# Experiment: vTreg53 TCR tetramer staining of single peptide-A^b yeast clone
# Assay type: binding, murine
# Conditions: 500 nM final tetramer concentration
# Method: Figure 2. Identification of surrogate peptides recognized by the vTreg53 TCR. (A) The vTreg53 TCR was used to screen and isolate the peptide-MHC yeast display. vTreg53 TCR tetramer staining (500 nM of TCR-SA) together with c-Myc staining is shown for the naïve library and four consecutive rounds of selection. […] (C) Positional frequency representation from the deep sequencing of the third round of selection with vTreg53. (D) Positional frequency matrix based on the deep sequencing of the fourth round of the peptide-MHC yeast selection. […] Data shown are representative of at least two independent experiments. Figure 2—figure supplement 1. Evolution of peptide-Ab yeast display. […] TEXT PRINTED IN THE PICTURE: (B) Fat7: Fraction: 0.596 | (B) TMYKGPHAVAAFT: Fraction: 0.369 | (B) LMFKGPHAVAAFT: Fraction: 0.029 | (B) FTYKNPRPVAATG: Fraction: 0.006 | (B) Fat15: Fraction: 0.000 | (B) TMYKNPRPVAATG: Fraction: 0.000 | (B) TMYKNPRPVAATG: Fraction: 0.000 DOUBTS OF THE COPYIST ABOUT THIS PICTURE: Panel B: the Fraction values are shares of sequencing reads from a selection, so it is uncertain whether they count as a result for a substance. […]
# Yeast were passaged in SDCAA and induced with SGCAA and selected with streptavidin (SA) - coated magnetic MACS beads (Miltenyi) coated with biotinylated TCR. […] Peptide-A^b surface expression was monitored with anti-c-myc (Cell Signaling) antibody staining. […]
sequence,measurement,value
LMFKGPHAVQAVG [Fat7],vTreg53 TCR-SA tetramer staining,positive
